In patent US20100267561A1, “HERBICIDAL PYRIDAZINONE DERIVATIVES” (priority 2007, published 2010):
Where two headings read alike, the source gives them in different places.

Tests used:
Assay type in all cases: in vivo
[1] = test system: pigweed (Amaranthus retroflexus); assay: Test A pre-/postemergence plant response; conditions: for pest or weed control at 125 g/ha / pest or weed control at 500 g/ha: Amaranthus retroflexus, 240 h, read-out: Plant response rating, Pigweed
How it was run: (§1)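 Ratings are visual, 0–100, where 100 means complete control and 0 no effect, taken roughly 10 days after treatment by comparison with untreated controls. Formulation: non-phytotoxic solvent mixture with surfactant.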

[2] = test system: corn (Zea mays); assay: Test A pre-/postemergence plant response; conditions: for Corn plant response rating (crop injury, 0 = no effect, 100 = complete kill) at 125 g/ha / Corn plant response rating (crop injury, 0 = no effect, 100 = complete kill) at 500 g/ha: Zea mays, 240 h
How it was run: as §1

[3] = test system: barnyardgrass (Echinochloa crus-galli); assay: Test A pre-/postemergence plant response; conditions: for pest or weed control at 125 g/ha / pest or weed control at 500 g/ha: Echinochloa crus-galli, 240 h, read-out: Plant response rating, Barnyardgrass
How it was run: as §1

[4] = test system: velvetleaf (Abutilon theophrasti); assay: Test A pre-/postemergence plant response
How it was run: as §1

[5] = test system: large crabgrass (Digitaria sanguinalis); assay: Test A pre-/postemergence plant response; conditions: for pest or weed control at 125 g/ha / pest or weed control at 500 g/ha: Digitaria sanguinalis, 240 h, read-out: Plant response rating, Crabgrass, Large
How it was run: as §1

[6] = test system: morningglory (Ipomoea coccinea); assay: Test A pre-/postemergence plant response
How it was run: as §1

[7] = test system: wheat (Triticum aestivum); assay: Test A pre-/postemergence plant response; conditions: for plant injury at 125 g/ha / plant injury at 500 g/ha: Triticum aestivum, 240 h, read-out: Plant response rating, Wheat
How it was run: as §1

[8] = test system: giant foxtail (Setaria faberi); assay: Test A pre-/postemergence plant response; conditions: for pest or weed control at 125 g/ha / pest or weed control at 500 g/ha: Setaria faberi, 240 h, read-out: Plant response rating, Foxtail, Giant
How it was run: as §1

[9] = test system: chickweed (Stellaria media); assay: Test B postemergence plant response; conditions: for Chickweed plant response rating: 8 g ai/ha, postemergence, 0-100 scale; for Plant response rating, Chickweed: Postemergence
How it was run: (§2)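 Postemergence spray on 1- to 4-leaf plants (2–18 cm); greenhouse 13–15 d; visual rating vs controls, 0 = no effect, 100 = complete control; dash = not tested.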

[10] = test system: canarygrass (Phalaris minor); assay: Test B postemergence plant response; conditions: for Canarygrass plant response rating: 8 g ai/ha, postemergence, 0-100 scale; for Plant response rating, Canarygrass: Postemergence
How it was run: as §2

[11] = test system: winter barley (Hordeum vulgare); assay: Test B postemergence plant response; conditions: for Barley plant response rating: 8 g ai/ha, postemergence, 0-100 scale; for Plant response rating, Barley: Postemergence, scale 0 to 100, 0 no effect, 100 complete control
How it was run: as §2

[12] = test system: windgrass (Apera spica-venti); assay: Test B postemergence plant response; conditions: for Windgrass plant response rating: 8 g ai/ha, postemergence, 0-100 scale; for Plant response rating, Windgrass: Postemergence
How it was run: as §2

[13] = test system: surinam grass (Brachiaria decumbens); assay: Test B pre-/postemergence plant response; conditions: for Surinam Grass plant response rating: 8 g ai/ha
How it was run: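 Preemergence and postemergence (plants 2-18 cm, 1- to 4-leaf stage) applications used test chemicals in a non-phytotoxic solvent with surfactant. Plants were held in a greenhouse 13 to 15 days, then rated visually against controls on a 0-100 scale (0 no effect, 100 complete control).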

[14] = post-emergence, Postemergence, 125 g ai/ha, 0 to 100 scale, 0 no effect, 100 complete control
[15] = post-emergence, Postemergence, 500 g ai/ha, 0 to 100 scale, 0 no effect, 100 complete control
[16] = pre-emergence, Preemergence, 125 g ai/ha, 0 to 100 scale (0 no effect, 100 complete control)
[17] = pre-emergence, Preemergence, 500 g ai/ha, 0 to 100 scale (0 no effect, 100 complete control)
[18] = Postemergence, 125 g ai/ha, 0 to 100 scale, 0 no effect, 100 complete control
[19] = Postemergence, 500 g ai/ha, 0 to 100 scale, 0 no effect, 100 complete control
[20] = Preemergence, 125 g ai/ha, 0 to 100 scale (0 no effect, 100 complete control)
[21] = Preemergence, 500 g ai/ha, 0 to 100 scale (0 no effect, 100 complete control)
[22] = 31 g ai/ha, scale 0 to 100, 0 no effect, 100 complete control
[23] = 62 g ai/ha, scale 0 to 100, 0 no effect, 100 complete control

## CCc1c(C)c(-c2ccc(Cl)cc2)nn1-c1c(O)cnn(C)c1=O [Compound 26, 4-[3-(4-chlorophenyl)-5-ethyl-4-methyl-1H-pyrazol-1-yl]-5-hydroxy-2-methyl-3(2H)-pyridazinone]
[1]; [14]
  pest or weed control at 125 g/ha: 0%
[1]; [15]
  pest or weed control at 500 g/ha: 0%
[1]; [16]
  pest or weed control at 125 g/ha: 0%
[1]; [17]
  pest or weed control at 500 g/ha: 0%
[2]; [14]
  Corn plant response rating (crop injury, 0 = no effect, 100 = complete kill) at 125 g/ha: 60%
[2]; [15]
  Corn plant response rating (crop injury, 0 = no effect, 100 = complete kill) at 500 g/ha: 100%
[2]; [16]
  Corn plant response rating (crop injury, 0 = no effect, 100 = complete kill) at 125 g/ha: 50%
[2]; [17]
  Corn plant response rating (crop injury, 0 = no effect, 100 = complete kill) at 500 g/ha: 90%
[3]; [14]
  pest or weed control at 125 g/ha: 100%
[3]; [15]
  pest or weed control at 500 g/ha: 100%
[3]; [16]
  pest or weed control at 125 g/ha: 100%
[3]; [17]
  pest or weed control at 500 g/ha: 100%
[4]; [18]
  Plant response rating, Velvetleaf: 0
[4]; [19]
  Plant response rating, Velvetleaf: 20
[4]; [20]
  Plant response rating, Velvetleaf: 0
[4]; [21]
  Plant response rating, Velvetleaf: 0
[5]; [14]
  pest or weed control at 125 g/ha: 80%
[5]; [15]
  pest or weed control at 500 g/ha: 100%
[5]; [16]
  pest or weed control at 125 g/ha: 90%
[5]; [17]
  pest or weed control at 500 g/ha: 100%
[6]; [18]
  Plant response rating, Morningglory: 0
[6]; [19]
  Plant response rating, Morningglory: 20
[6]; [20]
  Plant response rating, Morningglory: 0
[6]; [21]
  Plant response rating, Morningglory: 0
[7]; [14]
  plant injury at 125 g/ha: 0%
[7]; [15]
  plant injury at 500 g/ha: 60%
[7]; [16]
  plant injury at 125 g/ha: 20%
[7]; [17]
  plant injury at 500 g/ha: 70%
[8]; [14]
  pest or weed control at 125 g/ha: 90%
[8]; [15]
  pest or weed control at 500 g/ha: 100%
[8]; [16]
  pest or weed control at 125 g/ha: 100%
[8]; [17]
  pest or weed control at 500 g/ha: 100%
[9]
  Chickweed plant response rating: 0
[9]; 16 g ai/ha, scale 0 to 100
  Plant response rating, Chickweed: 0
[9]; [22]
  Plant response rating, Chickweed: 0
[9]; [23]
  Plant response rating, Chickweed: 0
[10]
  Canarygrass plant response rating: 10
[10]; 16 g ai/ha, scale 0 to 100
  Plant response rating, Canarygrass: 10
[10]; [22]
  Plant response rating, Canarygrass: 60
[11]
  Barley plant response rating: 0
[11]; 16 g ai/ha
  Plant response rating, Barley: 0
[11]; 31 g ai/ha
  Plant response rating, Barley: 0
[11]; 62 g ai/ha
  Plant response rating, Barley: 0
[12]
  Windgrass plant response rating: 50
[12]; 16 g ai/ha, scale 0 to 100
  Plant response rating, Windgrass: 80
[12]; [23]
  Plant response rating, Windgrass: 95
[13]; postemergence, 0-100 scale
  Surinam Grass plant response rating: 85
[13]; Preemergence, scale 0 to 100
  Surinam Grass plant response rating: 75
[13]; Urochloa decumbens, post-emergence, Postemergence, 16 g ai/ha, scale 0 to 100, read-out: Plant response rating, Surinam Grass
  pest or weed control at 16 g/ha: 85%
[13]; Urochloa decumbens, post-emergence, Postemergence, 62 g ai/ha, scale 0 to 100, 0 no effect, 100 complete control, read-out: Plant response rating, Surinam Grass
  pest or weed control at 62 g/ha: 100%
[13]; Urochloa decumbens, pre-emergence, Preemergence, 16 g ai/ha, scale 0 to 100 (0 no effect, 100 complete control), read-out: Plant response rating, Surinam Grass
  pest or weed control at 16 g/ha: 85%
[13]; Urochloa decumbens, pre-emergence, Preemergence, 31 g ai/ha, 0 to 100 scale, 0 no effect, 100 complete control, read-out: Plant response rating, Surinam Grass
  pest or weed control at 31 g/ha: 100%
[13]; Urochloa decumbens, pre-emergence, Preemergence, 62 g ai/ha, scale 0 to 100, read-out: Plant response rating, Surinam Grass
  pest or weed control at 62 g/ha: 100%

## Cn1ncc(O)c(-c2nn(-c3ccc(Cl)cc3)cc2Cl)c1=O [Compound 28]
[1]; [18]
  Plant response rating, Pigweed: 0
[1]; [19]
  Plant response rating, Pigweed: 0
[1]; [20]
  Plant response rating, Pigweed: 0
[1]; [21]
  Plant response rating, Pigweed: 0
[2]; [18]
  Plant response rating, Corn: 40
[2]; [19]
  Plant response rating, Corn: 90
[2]; [20]
  Plant response rating, Corn: 80
[2]; [21]
  Plant response rating, Corn: 90
[3]; [18]
  Plant response rating, Barnyardgrass: 60
[3]; [19]
  Plant response rating, Barnyardgrass: 100
[3]; [20]
  Plant response rating, Barnyardgrass: 100
[3]; [21]
  Plant response rating, Barnyardgrass: 100
[4]; [18]
  Plant response rating, Velvetleaf: 0
[4]; [19]
  Plant response rating, Velvetleaf: 0
[4]; [20]
  Plant response rating, Velvetleaf: 0
[4]; [21]
  Plant response rating, Velvetleaf: 20
[5]; [18]
  Plant response rating, Crabgrass, Large: 80
[5]; [19]
  Plant response rating, Crabgrass, Large: 90
[5]; [20]
  Plant response rating, Crabgrass, Large: 90
[5]; [21]
  Plant response rating, Crabgrass, Large: 100
[6]; [18]
  Plant response rating, Morningglory: 0
[6]; [19]
  Plant response rating, Morningglory: 30
[6]; [21]
  Plant response rating, Morningglory: 0
[7]; [18]
  Plant response rating, Wheat: 50
[7]; [19]
  Plant response rating, Wheat: 70
[7]; [20]
  Plant response rating, Wheat: 70
[7]; [21]
  Plant response rating, Wheat: 100
[8]; [18]
  Plant response rating, Foxtail, Giant: 90
[8]; [19]
  Plant response rating, Foxtail, Giant: 90
[8]; [20]
  Plant response rating, Foxtail, Giant: 100
[8]; [21]
  Plant response rating, Foxtail, Giant: 100
[9]
  Chickweed plant response rating: 0
[9]; 16 g ai/ha, scale 0 to 100
  Plant response rating, Chickweed: 0
[9]; [22]
  Plant response rating, Chickweed: 0
[9]; [23]
  Plant response rating, Chickweed: 0
[10]
  Canarygrass plant response rating: 0
[10]; 16 g ai/ha, scale 0 to 100
  Plant response rating, Canarygrass: 0
[10]; [22]
  Plant response rating, Canarygrass: 50
[11]
  Barley plant response rating: 0
[11]; 16 g ai/ha
  Plant response rating, Barley: 0
[11]; 31 g ai/ha
  Plant response rating, Barley: 50
[12]
  Windgrass plant response rating: 0
[12]; 16 g ai/ha, scale 0 to 100
  Plant response rating, Windgrass: 35
[12]; [23]
  Plant response rating, Windgrass: 85
[13]; postemergence, 0-100 scale
  Surinam Grass plant response rating: 65
[13]; Postemergence, 16 g ai/ha, scale 0 to 100
  Plant response rating, Surinam Grass: 65
[13]; Postemergence, 62 g ai/ha, scale 0 to 100, 0 no effect, 100 complete control
  Plant response rating, Surinam Grass: 90
[13]; Preemergence, 16 g ai/ha, scale 0 to 100 (0 no effect, 100 complete control)
  Plant response rating, Surinam Grass: 65
[13]; Preemergence, 31 g ai/ha, 0 to 100 scale, 0 no effect, 100 complete control
  Plant response rating, Surinam Grass: 98
[13]; Preemergence, 62 g ai/ha, scale 0 to 100
  Plant response rating, Surinam Grass: 100
[13]; Preemergence, scale 0 to 100
  Surinam Grass plant response rating: 0
